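Cells were grown in 96-well plates and exposed to each compound for 48 hours at five concentrations; endpoints were interpolated linearly between bracketing concentrations, or set to the highest concentration if not reached. GI50 = concentration required for 50% inhibition of growth. Definition used: TGI = concentration required for complete inhibition of growth.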
Key:
Assay in all cases: DTP human tumour cell line panel, 48 h
IGROV1 ovarian = system: IGROV1 ovarian
RPMI-8226 leukemia = system: RPMI-8226 leukemia
CAKI-1 renal = system: CAKI-1 renal
A549 NSCLC = system: A549 NSCLC
HOP-92 NSCLC = system: HOP-92 NSCLC
CCRF-CEM leukemia = system: CCRF-CEM leukemia
HCC-2998 colon = system: HCC-2998 colon
KM12 colon = system: KM12 colon
DU-145 prostate = system: DU-145 prostate
HOP-62 NSCLC = system: HOP-62 NSCLC

Structure (SMILES)	GI50 (IGROV1 ovarian)	TGI (IGROV1 ovarian)	GI50 (RPMI-8226 leukemia)	TGI (RPMI-8226 leukemia)	GI50 (CAKI-1 renal)	TGI (CAKI-1 renal)	GI50 (A549 NSCLC)	TGI (A549 NSCLC)	GI50 (HOP-92 NSCLC)	TGI (HOP-92 NSCLC)	GI50 (CCRF-CEM leukemia)	TGI (CCRF-CEM leukemia)	GI50 (HCC-2998 colon)	TGI (HCC-2998 colon)	GI50 (KM12 colon)	TGI (KM12 colon)	GI50 (DU-145 prostate)	TGI (DU-145 prostate)	GI50 (HOP-62 NSCLC)	TGI (HOP-62 NSCLC)
Clc1ccc(-c2cc(-c3ccccc3)nc(NCCNc3ccnc4cc(Cl)ccc34)n2)cc1	1.6 µM	3.27 µM	2.03 µM	4.54 µM	1.47 µM	2.93 µM	1.71 µM	3.45 µM	1.32 µM	2.8 µM	2.14 µM	5.56 µM	1.85 µM	3.56 µM	1.81 µM	3.46 µM	1.82 µM	3.31 µM	1.68 µM	3.48 µM
O=C1c2ccccc2-c2c1c1ccccc1c(=O)n2CCCNCCCCNCCCN1C(=O)c2ccccc2C2C(=O)c3ccccc3C21 (centres undefined)	0.988 µM	10.7 µM	0.00858 µM	0.237 µM	0.447 µM	1.13 µM	0.0451 µM	0.881 µM	0.00829 µM	0.0428 µM	0.0291 µM	0.766 µM	0.194 µM	0.908 µM	0.27 µM	1.41 µM	0.127 µM	0.837 µM	0.273 µM	1.08 µM
CCOc1cccc(-c2nc(N)nc(Nc3ccccc3SSc3ccccc3Nc3nc(N)nc(-c4cccc(OCC)c4)n3)n2)c1	3.65 µM	97 µM	2.18 µM	6.89 µM	3.29 µM	28.3 µM	2.02 µM	4.78 µM	2.77 µM	9.86 µM	2.2 µM	> 100 µM	> 100 µM	> 100 µM	3.53 µM	> 100 µM	7.5 µM	> 100 µM	1.57 µM	4.46 µM
Clc1ccc(OCc2nnc3n2N=C(c2ccc(Cl)cc2Cl)CS3)cc1	19.8 µM	50.8 µM	21.1 µM	68.5 µM	25.9 µM	79.7 µM	32.6 µM	> 100 µM	14.3 µM	41.2 µM	21.1 µM	68.1 µM	16.6 µM	35 µM	20.9 µM	54.4 µM	31.2 µM	> 100 µM	19.6 µM	41.3 µM
COC1=CC(c2ccc[nH]2)=N/C1=C\c1[nH]c(C)c(C(=O)CCCCC(=O)Oc2ccc3c(c2)CCC2C3CC[C@]3(C)[C@@H](O)CC[C@@H]23)c1C (some centres undefined)	31.1 µM	> 100 µM	4.11 µM	> 100 µM	5.45 µM	> 100 µM	6.58 µM	> 100 µM	3.3 µM	29.2 µM	0.668 µM	> 100 µM	> 100 µM	> 100 µM	6.66 µM	> 100 µM	9.57 µM	> 100 µM	17.3 µM	> 100 µM
O=C1c2cccc(NCCN=Cc3ccccc3O)c2C(=O)c2c(NCCN=Cc3ccccc3O)cccc21	0.237 µM	0.504 µM	0.878 µM	4.29 µM	0.953 µM	4.82 µM	0.668 µM	14.3 µM	0.584 µM	2.49 µM	1.02 µM	4.24 µM	0.535 µM	1.72 µM	0.353 µM	1.44 µM	0.364 µM	1.55 µM	0.663 µM	3.89 µM
O=C(O)c1ccc(C(=O)O)c(C(=O)Nc2ccc3c(c2)C(=O)c2ccccc2-3)c1		> 100 µM		> 100 µM		> 100 µM		> 100 µM		> 100 µM		> 100 µM		> 100 µM		> 100 µM		> 100 µM		> 100 µM
COc1ccc(Nc2cc(C)nc(NCCCNc3ccnc4cc(Cl)ccc34)n2)cc1	2.25 µM	6.09 µM	1.81 µM	5 µM	1.5 µM	2.87 µM	1.91 µM	3.86 µM	1.24 µM	3.3 µM	1.31 µM	6.49 µM	1.65 µM	3.45 µM	1.88 µM	3.58 µM	3.4 µM	10.7 µM	1.65 µM	3.93 µM
COc1ccc(/C=C2\C=C(c3ccccc3)N(CCc3ccccc3)C2=O)cc1OC	4.93 µM	52.1 µM	18.4 µM	84.9 µM	7.53 µM	> 100 µM	5.06 µM	17.7 µM	2.54 µM	8.17 µM	35.9 µM	> 100 µM	12.9 µM	64.1 µM	22.2 µM	> 100 µM	13.2 µM	> 100 µM	2.72 µM	
CCN(CC)C1CCC(Nc2c(C(C)=O)cnc3ccc(-c4ccc(O)c(Cl)c4)cc23)CC1 (centres undefined)	0.253 µM	5.47 µM	0.393 µM	2.1 µM	0.376 µM	10.8 µM	0.58 µM	5.52 µM	0.227 µM	4.27 µM	0.385 µM	6.26 µM	1.63 µM	12.9 µM	0.432 µM	4.28 µM	0.875 µM	> 35.5 µM	2.14 µM	> 45.5 µM
CC(=O)OC1CC2C3CCC4C[C@@H](NC(=O)C=C(C)C)CC[C@]4(C)C3CC[C@]2(C)[C@H]1C(C)N(C)C (some centres undefined)	1.28 µM	6.5 µM	1.66 µM	5.67 µM	3.71 µM	13.2 µM	2.39 µM	6.99 µM	0.89 µM	4.06 µM	1.81 µM	8.15 µM	1.75 µM	3.57 µM	2.55 µM	10.4 µM	3.41 µM	14.1 µM	1.8 µM	3.64 µM
OCc1ccc(N2CCc3ccccc3C2)cc1Cl	< 0.0155 µM	< 0.0281 µM	0.617 µM	87.9 µM	0.568 µM	14.1 µM	0.0604 µM	7.59 µM	0.0448 µM	9.28 µM	27.3 µM	99.6 µM	1.15 µM	7.11 µM	13.6 µM	40.1 µM	2.38 µM	22.3 µM	0.0222 µM	24.7 µM
